Laboratory results as given in US9101160B2, “Condiments with high-potency sweetener” (The Coca-Cola Company, priority 2005, dated 2015).

Assay type: physicochemical
Description: A solution of rebaudioside A ( >97% pure by HPLC ) was prepared in double distilled water (12.5 gm in 50 mL, 25% concentration) by stirring the mixture at 40° C. for 5 minutes. An amorphous form of rebaudioside A was formed by immediately using the clear solution for spray drying with the Lab-Plant spray drier SD-04 instrument (Lab-Plant Ltd., West Yorkshire, U.K.). The solution was fed through the feed pump into the nozzle atomizer which atomized it into a spray of droplets with the help of a constant flow of nitrogen/air. […] This dry powder (11-12 g, H2O 6.74%) was discharged continuously from the drying chamber and was collected in a bottle.

## rebaudioside A [Form 4]
  solubility in water at room temperature: > 35.0%
